In brackets after ≈: the same amount, converted by molar mass.
Columns and labels:
Format in all cases: functional
Escherichia coli [1] = assay: Antimicrobial activity against Escherichia coli ATCC 8739 by tube dilution method
[2] = test system: Staphylococcus epidermidis; assay: Antimicrobial activity against Staphylococcus epidermidis ATCC 12228 by disc-diffusion method
Staphylococcus aureus [3] = assay: Antimicrobial activity against Staphylococcus aureus ATCC 6538 by disc-diffusion method
Pseudomonas aeruginosa [4] = assay: Antimicrobial activity against Pseudomonas aeruginosa ATCC 1539 by tube dilution method
Klebsiella pneumoniae [5] = assay: Antimicrobial activity against Klebsiella pneumoniae UC57 by tube dilution method
Proteus vulgaris [6] = assay: Antimicrobial activity against Proteus vulgaris ATCC 8427 by disc-diffusion method
Klebsiella pneumoniae [7] = assay: Antimicrobial activity against Klebsiella pneumoniae UC57 by disc-diffusion method
Pseudomonas aeruginosa [8] = assay: Antimicrobial activity against Pseudomonas aeruginosa ATCC 1539 by disc-diffusion method
[9] = test system: Staphylococcus epidermidis; assay: Antimicrobial activity against Staphylococcus epidermidis ATCC 12228 by tube dilution method
Staphylococcus aureus [10] = assay: Antimicrobial activity against Staphylococcus aureus ATCC 6538 by tube dilution method
Proteus vulgaris [11] = assay: Antimicrobial activity against Proteus vulgaris ATCC 8427 by tube dilution method
Escherichia coli [12] = assay: Antimicrobial activity against Escherichia coli ATCC 8739 by disc-diffusion method

In the case of `O=c1cc(-c2ccc(O)c(O)c2)oc2cc(O)cc(O)c12` [LUTEOLIN], the MBC (Escherichia coli [1]) is reported as 500 µg/mL (≈ 1750 µM), the MIC (Escherichia coli [1]) is reported as 125 µg/mL (≈ 437 µM) and the “inhibition zone (IZ)” value [2] is reported as less than 7 mm. The “inhibition zone (IZ)” value (Staphylococcus aureus [3]) was less than 7 mm, the MBC (Pseudomonas aeruginosa [4]) was 500 µg/mL (≈ 1750 µM) and the MIC (Pseudomonas aeruginosa [4]) was 125 µg/mL (≈ 437 µM). For the same compound, the MBC (Klebsiella pneumoniae [5]) was 500 µg/mL (≈ 1750 µM), the MIC (Klebsiella pneumoniae [5]) was 125 µg/mL (≈ 437 µM) and the “inhibition zone (IZ)” value (Proteus vulgaris [6]) was less than 7 mm.
`O=c1cc(-c2ccc(O)c(O)c2)oc2cc(O[C@@H]3O[C@H](CO)[C@@H](O)[C@H](O)[C@H]3O)cc(O)c12` [GALUTEOLIN] was tested, and the MBC (Escherichia coli [1]) was 500 µg/mL (≈ 1120 µM), the MIC (Escherichia coli [1]) was 250 µg/mL (≈ 558 µM) and the “inhibition zone (IZ)” value [2] was less than 7 mm. For the same compound, the “inhibition zone (IZ)” value (Klebsiella pneumoniae [7]) was less than 7 mm, the “inhibition zone (IZ)” value (Staphylococcus aureus [3]) was less than 7 mm and the “inhibition zone (IZ)” value (Pseudomonas aeruginosa [8]) was less than 7 mm. For the same compound, the “inhibition zone (IZ)” value (Proteus vulgaris [6]) was less than 7 mm.
`COc1cc2oc(-c3ccc(O)cc3)cc(=O)c2c(O)c1OC` [CIRSIMARITIN] was tested, and the MBC [9] was 125 µg/mL (≈ 398 µM), the MIC [9] was 62.5 µg/mL (≈ 199 µM) and the MBC (Escherichia coli [1]) was 90 µg/mL (≈ 286 µM). For the same compound, the MIC (Escherichia coli [1]) was 45 µg/mL (≈ 143 µM), the MBC (Staphylococcus aureus [10]) was 125 µg/mL (≈ 398 µM) and the MIC (Staphylococcus aureus [10]) was 31.2 µg/mL (≈ 99.4 µM). The MBC (Proteus vulgaris [11]) was 125 µg/mL (≈ 398 µM), the MIC (Proteus vulgaris [11]) was 31.2 µg/mL (≈ 99.4 µM) and the MBC (Pseudomonas aeruginosa [4]) was 125 µg/mL (≈ 398 µM). It also gave an MIC (Pseudomonas aeruginosa [4]) of 31.2 µg/mL (≈ 99.4 µM), an MBC (Klebsiella pneumoniae [5]) of 90 µg/mL (≈ 286 µM) and an MIC (Klebsiella pneumoniae [5]) of 45 µg/mL (≈ 143 µM).
`COc1ccc(-c2cc(=O)c3cc(OC)c(OC)cc3o2)cc1OC` was tested, and the “inhibition zone (IZ)” value [2] was less than 7 mm, the “inhibition zone (IZ)” value (Escherichia coli [12]) was less than 7 mm and the “inhibition zone (IZ)” value (Klebsiella pneumoniae [7]) was less than 7 mm. For the same compound, the “inhibition zone (IZ)” value (Staphylococcus aureus [3]) was less than 7 mm, the MBC (Pseudomonas aeruginosa [4]) was 250 µg/mL (≈ 730 µM) and the MIC (Pseudomonas aeruginosa [4]) was 125 µg/mL (≈ 365 µM). For the same compound, the “inhibition zone (IZ)” value (Proteus vulgaris [6]) was less than 7 mm.

— ChEMBL document CHEMBL1145675, “Antibacterial activity studies of flavonoids from Salvia palaestina” (1983)
